Measurements from the supplement of paper PMC10307832.

Tests used:
Experiment in all cases: relative viability (nuclei count vs DMSO), 5 days (fraction); higher = more cells survive
[1] = test system: NCI-H1915
In short: (§1)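 The day after seeding in 1536-well plates, lung cancer cell lines were treated by pin tool with a single drug, or with a fixed anchor-drug dose together with five library-drug doses (not always all listed) in √10 steps. After 5 days, a combined fix-and-stain solution (final 0.05% Triton X-100, 1% formaldehyde, 1 ug/ml Hoechst) was added. Nuclei counted on 4× images gave relative viability as treated counts over vehicle counts, reported as the median of duplicate plates.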

[2] = test system: NCI-H661
In short: as §1

[3] = test system: NCI-H596
In short: as §1

[4] = test system: NCI-H727
In short: as §1

[5] = test system: LXF-289
In short: as §1

[6] = test system: NCI-H3122
In short: as §1

[7] = test system: NCI-H1792
In short: as §1

[8] = test system: PC-14
In short: as §1

[9] = test system: NCI-H1651
In short: as §1

[10] = test system: NCI-H520
In short: as §1

[11] = test system: NCI-H1355
In short: as §1

[12] = test system: NCI-H322M
In short: as §1

[13] = test system: NCI-H460
In short: as §1

[14] = test system: NCI-H1563
In short: as §1

[15] = test system: NCI-H2347
In short: as §1

[16] = test system: RERF-LC-KJ
In short: as §1

[17] = test system: NCI-H1755
In short: as §1

[18] = test system: SK-MES-1
In short: as §1

[19] = test system: LCLC-103H
In short: as §1

[20] = test system: NCI-H441
In short: as §1

Nc1ccn([C@@H]2O[C@H](CO)[C@@H](O)[C@@H]2O)c(=O)n1 [Cytarabine] + CS(=O)(=O)CCNCc1ccc(-c2ccc3ncnc(Nc4ccc(OCc5cccc(F)c5)c(Cl)c4)c3c2)o1 [Lapatinib] (partner 2 µM)
relative viability ([1]; first compound 0.005 µM): 0.868
relative viability ([1]; first compound 0.01581 µM): 0.955
relative viability ([1]; first compound 0.05 µM): 0.848
relative viability ([1]; first compound 0.1581 µM): 0.393
relative viability ([1]; first compound 0.5 µM): 0.257
relative viability ([2]; first compound 0.005 µM): 0.544
relative viability ([2]; first compound 0.01581 µM): 0.465
relative viability ([2]; first compound 0.05 µM): 0.49
relative viability ([2]; first compound 0.1581 µM): 0.278
relative viability ([2]; first compound 0.5 µM): 0.233
relative viability ([3]; first compound 0.005 µM): 1.03
relative viability ([3]; first compound 0.01581 µM): 0.903
relative viability ([3]; first compound 0.05 µM): 0.785
relative viability ([3]; first compound 0.1581 µM): 0.746
relative viability ([3]; first compound 0.5 µM): 0.609
relative viability ([4]; first compound 0.005 µM): 0.766
relative viability ([4]; first compound 0.01581 µM): 0.602
relative viability ([4]; first compound 0.05 µM): 0.606
relative viability ([4]; first compound 0.1581 µM): 0.339
relative viability ([4]; first compound 0.5 µM): 0.28
relative viability ([5]; first compound 0.005 µM): 0.806
relative viability ([5]; first compound 0.01581 µM): 0.851
relative viability ([5]; first compound 0.05 µM): 0.809
relative viability ([5]; first compound 0.1581 µM): 0.429
relative viability ([5]; first compound 0.5 µM): 0.339
relative viability ([6]; first compound 0.005 µM): 1.12
relative viability ([6]; first compound 0.01581 µM): 0.912
relative viability ([6]; first compound 0.05 µM): 0.91
relative viability ([6]; first compound 0.1581 µM): 0.676
relative viability ([6]; first compound 0.5 µM): 0.551
relative viability ([7]; first compound 0.005 µM): 0.878
relative viability ([7]; first compound 0.01581 µM): 0.874
relative viability ([7]; first compound 0.05 µM): 0.366
relative viability ([7]; first compound 0.1581 µM): 0.548
relative viability ([7]; first compound 0.5 µM): 0.47
relative viability ([8]; first compound 0.005 µM): 0.282
relative viability ([8]; first compound 0.01581 µM): 0.236
relative viability ([8]; first compound 0.05 µM): 0.273
relative viability ([8]; first compound 0.1581 µM): 0.17
relative viability ([8]; first compound 0.5 µM): 0.221
relative viability ([9]; first compound 0.005 µM): 0.801
relative viability ([9]; first compound 0.01581 µM): 0.845
relative viability ([9]; first compound 0.05 µM): 1.02
relative viability ([9]; first compound 0.1581 µM): 0.421
relative viability ([9]; first compound 0.5 µM): 0.288
relative viability ([10]; first compound 0.005 µM): 0.557
relative viability ([10]; first compound 0.01581 µM): 0.743
relative viability ([10]; first compound 0.05 µM): 0.911
relative viability ([10]; first compound 0.1581 µM): 0.552
relative viability ([10]; first compound 0.5 µM): 0.47
relative viability ([11]; first compound 0.005 µM): 0.884
relative viability ([11]; first compound 0.01581 µM): 0.968
relative viability ([11]; first compound 0.05 µM): 0.811
relative viability ([11]; first compound 0.1581 µM): 0.66
relative viability ([11]; first compound 0.5 µM): 0.322
relative viability ([12]; first compound 0.005 µM): 0.585
relative viability ([12]; first compound 0.01581 µM): 0.609
relative viability ([12]; first compound 0.05 µM): 0.459
relative viability ([12]; first compound 0.1581 µM): 0.354
relative viability ([12]; first compound 0.5 µM): 0.348
relative viability ([13]; first compound 0.005 µM): 0.333
relative viability ([13]; first compound 0.01581 µM): 1.1
relative viability ([13]; first compound 0.05 µM): 0.4
relative viability ([13]; first compound 0.1581 µM): 0.0338
relative viability ([13]; first compound 0.5 µM): 0.0305
relative viability ([14]; first compound 0.005 µM): 0.935
relative viability ([14]; first compound 0.01581 µM): 0.859
relative viability ([14]; first compound 0.05 µM): 0.497
relative viability ([14]; first compound 0.1581 µM): 0.926
relative viability ([14]; first compound 0.5 µM): 0.708
relative viability ([15]; first compound 0.005 µM): 1.01
relative viability ([15]; first compound 0.01581 µM): 0.942
relative viability ([15]; first compound 0.05 µM): 0.764
relative viability ([15]; first compound 0.1581 µM): 0.659
relative viability ([15]; first compound 0.5 µM): 0.825
relative viability ([16]; first compound 0.005 µM): 0.885
relative viability ([16]; first compound 0.01581 µM): 0.751
relative viability ([16]; first compound 0.05 µM): 0.892
relative viability ([16]; first compound 0.1581 µM): 0.569
relative viability ([16]; first compound 0.5 µM): 0.47
relative viability ([17]; first compound 0.005 µM): 0.759
relative viability ([17]; first compound 0.01581 µM): 0.973
relative viability ([17]; first compound 0.05 µM): 0.8
relative viability ([17]; first compound 0.1581 µM): 0.259
relative viability ([17]; first compound 0.5 µM): 0.271
relative viability ([18]; first compound 0.005 µM): 0.416
relative viability ([18]; first compound 0.01581 µM): 0.396
relative viability ([18]; first compound 0.05 µM): 0.328
relative viability ([18]; first compound 0.1581 µM): 0.228
relative viability ([18]; first compound 0.5 µM): 0.196

Cc1sc2c(c1C)C(c1ccc(Cl)cc1)=N[C@@H](CC(=O)OC(C)(C)C)c1nnc(C)n1-2 [JQ1] + CC(C)C[C@H](NC(=O)[C@H](Cc1ccccc1)NC(=O)c1cnccn1)B(O)O [Bortezomib] (partner 0.002 µM)
relative viability ([1]; first compound 0.04 µM): 1.02
relative viability ([1]; first compound 0.1265 µM): 0.706
relative viability ([1]; first compound 0.4 µM): 0.961
relative viability ([1]; first compound 1.265 µM): 0.678
relative viability ([1]; first compound 4 µM): 0.642
relative viability ([2]; first compound 0.04 µM): 0.783
relative viability ([2]; first compound 0.1265 µM): 0.83
relative viability ([2]; first compound 0.4 µM): 0.576
relative viability ([2]; first compound 1.265 µM): 0.431
relative viability ([2]; first compound 4 µM): 0.537
relative viability ([3]; first compound 0.04 µM): 0.945
relative viability ([3]; first compound 0.1265 µM): 0.781
relative viability ([3]; first compound 0.4 µM): 0.955
relative viability ([3]; first compound 1.265 µM): 0.673
relative viability ([3]; first compound 4 µM): 0.344
relative viability ([4]; first compound 0.04 µM): 0.756
relative viability ([4]; first compound 0.1265 µM): 1.01
relative viability ([4]; first compound 0.4 µM): 0.588
relative viability ([4]; first compound 1.265 µM): 0.38
relative viability ([4]; first compound 4 µM): 0.395
relative viability ([5]; first compound 0.04 µM): 0.977
relative viability ([5]; first compound 0.1265 µM): 0.887
relative viability ([5]; first compound 0.4 µM): 0.865
relative viability ([5]; first compound 1.265 µM): 0.894
relative viability ([5]; first compound 4 µM): 0.719
relative viability ([6]; first compound 0.04 µM): 1.01
relative viability ([6]; first compound 0.1265 µM): 0.998
relative viability ([6]; first compound 0.4 µM): 1.03
relative viability ([6]; first compound 1.265 µM): 0.996
relative viability ([6]; first compound 4 µM): 0.905
relative viability ([7]; first compound 0.04 µM): 0.953
relative viability ([7]; first compound 0.4 µM): 0.895
relative viability ([7]; first compound 1.265 µM): 0.657
relative viability ([7]; first compound 4 µM): 0.456
relative viability ([19]; first compound 0.04 µM): 1.04
relative viability ([19]; first compound 0.1265 µM): 1.01
relative viability ([19]; first compound 0.4 µM): 1.06
relative viability ([19]; first compound 1.265 µM): 0.557
relative viability ([19]; first compound 4 µM): 0.439
relative viability ([8]; first compound 0.04 µM): 0.811
relative viability ([8]; first compound 0.1265 µM): 0.901
relative viability ([8]; first compound 0.4 µM): 0.888
relative viability ([8]; first compound 1.265 µM): 0.346
relative viability ([8]; first compound 4 µM): 0.201
relative viability ([9]; first compound 0.04 µM): 0.919
relative viability ([9]; first compound 0.1265 µM): 0.781
relative viability ([9]; first compound 0.4 µM): 0.842
relative viability ([9]; first compound 1.265 µM): 0.9
relative viability ([9]; first compound 4 µM): 0.635
relative viability ([20]; first compound 0.04 µM): 0.611
relative viability ([20]; first compound 0.1265 µM): 0.363
relative viability ([20]; first compound 0.4 µM): 0.443
relative viability ([20]; first compound 1.265 µM): 0.189
relative viability ([20]; first compound 4 µM): 0.174
relative viability ([10]; first compound 0.04 µM): 0.527
relative viability ([10]; first compound 0.1265 µM): 0.242
relative viability ([10]; first compound 0.4 µM): 0.157
relative viability ([10]; first compound 1.265 µM): 0.167
relative viability ([10]; first compound 4 µM): 0.136
relative viability ([11]; first compound 0.04 µM): 1.17
relative viability ([11]; first compound 0.1265 µM): 1.07
relative viability ([11]; first compound 0.4 µM): 1.05
relative viability ([11]; first compound 1.265 µM): 0.86
relative viability ([11]; first compound 4 µM): 0.669
relative viability ([12]; first compound 0.04 µM): 1.33
relative viability ([12]; first compound 0.1265 µM): 1.24
relative viability ([12]; first compound 0.4 µM): 1.35
relative viability ([12]; first compound 1.265 µM): 1.04
relative viability ([12]; first compound 4 µM): 0.94
relative viability ([13]; first compound 0.04 µM): 1.05
relative viability ([13]; first compound 0.1265 µM): 0.611
relative viability ([13]; first compound 0.4 µM): 0.456
relative viability ([13]; first compound 1.265 µM): 0.224
relative viability ([13]; first compound 4 µM): 0.212
relative viability ([14]; first compound 0.04 µM): 0.909
relative viability ([14]; first compound 0.1265 µM): 0.619
relative viability ([14]; first compound 0.4 µM): 0.642
relative viability ([14]; first compound 1.265 µM): 0.544
relative viability ([14]; first compound 4 µM): 0.621
relative viability ([15]; first compound 0.04 µM): 1.13
relative viability ([15]; first compound 0.1265 µM): 0.934
relative viability ([15]; first compound 0.4 µM): 0.841
relative viability ([15]; first compound 1.265 µM): 0.564
relative viability ([15]; first compound 4 µM): 0.404
relative viability ([16]; first compound 0.04 µM): 1.17
relative viability ([16]; first compound 0.1265 µM): 1.11
relative viability ([16]; first compound 0.4 µM): 1.13
relative viability ([16]; first compound 1.265 µM): 0.52
relative viability ([16]; first compound 4 µM): 0.415
relative viability ([17]; first compound 0.04 µM): 0.923
relative viability ([17]; first compound 0.1265 µM): 0.807
relative viability ([17]; first compound 0.4 µM): 0.995
relative viability ([17]; first compound 1.265 µM): 0.618
relative viability ([17]; first compound 4 µM): 0.44
